From PMC4183650 (Journal of the American Chemical Society, 2014)

Columns and labels:
[1] = tested on: panel of Gram-positive bacteria (VSSA, MRSA, VanA and VanB VRE); assay: In vitro antimicrobial assay, panel summary in text; format: cell-based, S. aureus, E. faecalis, E. faecium
[2] = both D-Ala-D-Ala and D-Ala-D-Lac ligands; cited from earlier work
VanA VRE = settings: clinically resistant phenotypes (VanA and VanB); cited from earlier work

[Ψ[C(=NH)NH]Tpg^4]vancomycin [compound 3]
MIC against VanA resistant bacteria ([1]; VanA resistant bacteria): 0.5 µg/mL

[Ψ[C(=S)NH]Tpg^4]vancomycin [compound 2]
MIC against all vancomycin sensitive and resistant strains ([1]; whole panel: VSSA, MRSA, VanA and VanB VRE): > 32 µg/mL

[Ψ[C(=NH)NH]Tpg^4]vancomycin aglycon [compound 9]
binding affinity for both target ligands relative to vancomycin aglycon for D-Ala-D-Ala [2]: ≤ 2 fold

Vancomycin [compound 1]
loss in antimicrobial activity in resistant phenotypes (VanA VRE): 1000 fold
